Reference: patent US20190330197A1, “SUBSTITUTED NAPHTHALENE DIIMIDES AND THEIR USE” (UCL Business PLC, priority 2015, published 2019)

Tests used:
[1] = test system: Hsp90A sequence from the HSP90 promoter; assay: FRET quadruplex stabilisation assay, Hsp90A; type: binding; conditions: compound at 1 μM, 60 mM potassium cacodylate buffer pH 7.4
From the text: The ability of the naphthalene diimide compounds to stabilize quadruplex DNA sequences was investigated using a fluorescence resonance energy transfer (FRET) assay modified to be used as a high-throughput screen in a 96-well format. Several quadruplex sequences were studied (including the human telomeric G-quadruplex DNA sequence 5′-FAM-d(GGG[TTAGGG]3)-TAMRA-3′ and the duplex sequence 5′-FAM-d[…]-HEG-[…]-TAMRA-3′ (HEG linker: [(—CH2—CH2—O—)6.
The labelled oligonucleotides have attached to them the donor fluorophore FAM: 6-carboxyfluorescein and the acceptor fluorophore TAMRA: 6-carboxytetramethylrhodamine. The FRET probe sequences were diluted from stock to the correct concentration (400 nM) in a 60 mM potassium cacodylate buffer (pH 7.4) and then annealed by heating to 85° C. for 10 min, followed by cooling to room temperature in the heating block. The compound was stored as a 10 mM stock solution in DMSO; final solutions (at 2× concentration) were prepared using 10 mM HCl in the initial 1:10 dilution, after which 60 mM potassium cacodylate buffer (pH 7.4) was used in all subsequent steps. The maximum HCl concentration in the reaction volume (at a ligand concentration of 20 μM) is thus 200 μM, well within the range of the buffer used. Relevant controls were also performed to check for interference with the assay. 96-Well plates (MJ Research, Waltham, Mass.) were prepared by aliquoting 50 μl of the annealed DNA into each well, followed by 50 μl of the compound solutions. Measurements were made on a DNA Engine Opticon (MJ Research) with excitation at 450-495 nm and detection at 515-545 nm. Fluorescence readings were taken at intervals of 0.5° C. in the range 30-100° C., with a constant temperature being maintained for 30 s prior to each reading to ensure a stable value. Final analysis of the data was carried out using a script written in the program Origin 7.0 (OriginLab Corp., Northampton, Mass.). The advanced curve-fitting function in Origin 7.0 was used for calculation of ΔTm values. All determinations were performed in triplicate or better. Esds in ΔTm are ±0.1° C.

[2] = test system: subcutaneous xenograft of the pancreatic tumour cell line MiaPaCa-2; assay: Antitumour activity in MiaPaCa-2 subcutaneous xenograft; type: in vivo, CD1 nude mice; conditions: 15 mg/kg IV twice weekly, FIG. 1
From the text: Study the therapeutic effect of compound 4c (MM41-tri) in comparison to MM41 and Gemcitabine in CD1 nude mice carrying a subcutaneous xenograft of the pancreatic tumour cell line MiaPaCa-2 (5×10^6 cells in the right flank) grown with Matrigel.
• 1 Inoculate SC 5×10^6 Miapaca-2 cells in the right flank (unsupplemented RPMI+Matrigel). • 2 Wait for tumours to establish subcutaneously (approx. 11 days). • 3 Measure size of the tumours weekly until they reach a mean size of 0.1 cm^3. At this stage of the development of the tumours, mice are ready to begin the therapy study. • 4 Re group mice to form 5 therapeutic groups constituted of 8 mice each, carrying approximately 0.1 cm^3 average of the tumour size per group. • 5 Administered corresponding dose of MM41 or compound 4c or Gemcitabine by IV. • Group 1: 8 mice treated with 15 mg/Kg of Gemcitabine twice weekly dose. • Group 2: 8 mice treated with 15 mg/Kg of MM41 (tetrasubstituted ND compound) twice weekly dose. • Group 3: 8 mice treated with 15 mg/Kg of Compound 4c twice weekly dose. • Group 4: 8 mice treated with 10 mg/Kg of Compound 4c twice weekly dose. • Group 5: 8 control mice treated with saline only twice weekly.

MIA-PaCa2 cells = assay: RNA-seq gene expression changes in treated MIA-PaCa2 cells; type: cell-based, human
Method: Cell lines were purchased from American Type Culture Collection (ATCC) and stored under liquid nitrogen. Cells were maintained in monolayer culture T75 (75 cm2 flasks) in humidified 5% CO2 atmosphere at 37° C. Cells were maintained in appropriate medium according to (ATCC) with necessary supplements including L-glutamine (Thermo Fisher Scientific Cat. No. 25030024), penicillin-streptomycin solution Hybrid-Max (Sigma Cat. No. P7539) and fetal bovine serum (FBS, Thermo Fisher Scientific Cat. No. 10270106). Cells were passaged at 80-90% confluence.
MIA-PaCa2 cells were seeded 48 hours prior to incubation, in MatTek 35 mm glass bottom dishes. Three incubation times for the compound 4c were examined: 0, 6 and 24 hrs. For RNA extraction cells (a maximum of 1×10^7 cells) were harvested by trypsinization following rinsing the cells twice in 1×PBS (without calcium chloride and magnesium chloride, purchased from Sigma Cat. No. D1408). After neutralising the medium with an equal volume of medium to trypsin cells were transferred to a sterile centrifuge tube for centrifugation for 4 minutes at 400 rpm at room temperate in order to pellet the cells. After removing the medium and trypsin following centrifugation RNA was extracted from the pellet of cells using the RNeasy Mini Kit by QIAGEN (Cat. no. 74104). RNA quality was checked by use of the NanoDrop 2000 Spectrophotometer, and a minimum quantity of ca 500 ng of RNA at >25 ng/μl concentration per replicate was verified.
RNA-Seq sequencing studies were performed by the UCL Genomics Facility using an Illumina NextSeq 500 instrument, and data obtained on RNA expression levels of all individual genes in the genomes of the cells analysed, relative to the control cells at 0 hr exposure. Four replicates were used for each time-point, thus a total of 12 individual genomes were analysed and statistics obtained for each time-point.
Data has been taken from RNA-seq data from treated MIA-PaCa2 cells, showing log-fold expression changes for genes selected from those showing the most significant down-regulation of expression as measured by RNA levels.

In the case of `O=C1c2ccc3c4c(c(NCCN5CCCC5)cc(c24)C(=O)N1CCCN1CCOCC1)C(=O)N(CCCN1CCOCC1)C3=O` [Compound 4c, 2,7-bis(3-morpholinopropyl)-4-((2-(pyrrolidin-1-yl)ethyl)amino)benzo[Imn][3,8]phenanthroline-1,3,6,8(2H,7H)-tetraone], the “ΔTm Hsp90A” value [1] is reported as 15.7 °C, the “anti-tumour response (tumour growth curve)” value [2] is reported as “highly significant anti-tumour response” and the “AVIL log-fold change relative to t = 0 hrs” value (MIA-PaCa2 cells; 4c at 6 hrs) is reported as 3.0. The “CBFA2T3 log-fold change relative to t = 0 hrs” value (MIA-PaCa2 cells; 4c at 6 hrs) was −2.8, the “FLG log-fold change relative to t = 0 hrs” value (MIA-PaCa2 cells; 4c at 6 hrs) was 4.0 and the “ITGA1 log-fold change relative to t = 0 hrs” value (MIA-PaCa2 cells; 4c at 6 hrs) was 4.5. For the same compound, the “ITGAM log-fold change relative to t = 0 hrs” value (MIA-PaCa2 cells; 4c at 6 hrs) was 7.0, the “PRDM16 log-fold change relative to t = 0 hrs” value (MIA-PaCa2 cells; 4c at 6 hrs) was −2.8 and the “SHANK2 log-fold change relative to t = 0 hrs” value (MIA-PaCa2 cells; 4c at 6 hrs) was −1.9. The “ST14 log-fold change relative to t = 0 hrs” value (MIA-PaCa2 cells; 4c at 6 hrs) was 5.6, the “TP73 log-fold change relative to t = 0 hrs” value (MIA-PaCa2 cells; 4c at 6 hrs) was −2.4 and the “TREX1 log-fold change relative to t = 0 hrs” value (MIA-PaCa2 cells; 4c at 6 hrs) was −8.3. For the same compound, the “ZNF469 log-fold change relative to t = 0 hrs” value (MIA-PaCa2 cells; 4c at 6 hrs) was −3.4, the “AVIL log-fold change relative to t = 0 hrs” value (MIA-PaCa2 cells; 4c at 24 hrs) was 0.5 and the “CBFA2T3 log-fold change relative to t = 0 hrs” value (MIA-PaCa2 cells; 4c at 24 hrs) was −2.8. For the same compound, the “FLG log-fold change relative to t = 0 hrs” value (MIA-PaCa2 cells; 4c at 24 hrs) was 0.7, the “ITGA1 log-fold change relative to t = 0 hrs” value (MIA-PaCa2 cells; 4c at 24 hrs) was 0.4 and the “ITGAM log-fold change relative to t = 0 hrs” value (MIA-PaCa2 cells; 4c at 24 hrs) was 2.6. The “PRDM16 log-fold change relative to t = 0 hrs” value (MIA-PaCa2 cells; 4c at 24 hrs) was −3.5, the “SHANK2 log-fold change relative to t = 0 hrs” value (MIA-PaCa2 cells; 4c at 24 hrs) was −2.0 and the “ST14 log-fold change relative to t = 0 hrs” value (MIA-PaCa2 cells; 4c at 24 hrs) was 2.5. The “TP73 log-fold change relative to t = 0 hrs” value (MIA-PaCa2 cells; 4c at 24 hrs) was −1.2, the “TREX1 log-fold change relative to t = 0 hrs” value (MIA-PaCa2 cells; 4c at 24 hrs) was −2.5 and the “ZNF469 log-fold change relative to t = 0 hrs” value (MIA-PaCa2 cells; 4c at 24 hrs) was −3.2. The “extent of gene expression changes” value (MIA-PaCa2 cells; treated MIA-PaCa2 cells) was “changes in gene expression in a comparatively small number of genes”.
